Data on 19 molecules can be found in PubChem BioAssay AID328 (DTP/NCI, 2004).

“And” between values parts separate entries of the source, which are not always exact repeats. Equal entries are not always repeated. Inconclusive results and toxic doses are left out.

This assay deals with BDF1 mice, P388 leukemia ip, median survival T/C. The experiment in a line: NCI In Vivo Anticancer Drug Screen. Data for tumor model P388 Leukemia (intraperitoneal) in B6D2F1 (BDF1) mice. As to conditions: endpoint: median survival time, higher = longer survival. Put shortly: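 Compound-treated tumour-bearing mice were compared with vehicle-treated controls. Survival was recorded, and the value is the treated-group measurement divided by the control-group measurement (T/C).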

The mark [1] stands for this setting: dose: 100.0 mg/kg/injection, schedule: Q01DX009 (ip), vehicle: Klucel (hydroxypropylcellulose) (HPC).
The mark [2] stands for this setting: dose: 100.0 mg/kg/injection, schedule: Q04DX003 (ip), vehicle: Klucel (hydroxypropylcellulose) (HPC).
[3] abbreviates: dose: 200.0 mg/kg/injection, schedule: Q01DX009 (ip), vehicle: Klucel (hydroxypropylcellulose) (HPC).
Setting [4] is: dose: 200.0 mg/kg/injection, schedule: Q04DX003 (ip), vehicle: Klucel (hydroxypropylcellulose) (HPC).
[5] abbreviates: dose: 400.0 mg/kg/injection, schedule: Q01DX009 (ip), vehicle: Klucel (hydroxypropylcellulose) (HPC).
[6] abbreviates: dose: 400.0 mg/kg/injection, schedule: Q04DX003 (ip), vehicle: Klucel (hydroxypropylcellulose) (HPC).
[7] abbreviates: dose: 25.0 mg/kg/injection, schedule: Q01DX009 (ip), vehicle: saline with Tween-80.
[8] abbreviates: dose: 50.0 mg/kg/injection, schedule: Q01DX009 (ip), vehicle: saline with Tween-80.
Where [9] appears, read: dose: 100.0 mg/kg/injection, schedule: Q01DX009 (ip), vehicle: saline with Tween-80.
Where [10] appears, read: dose: 100.0 mg/kg/injection, schedule: Q01DX001 (ip), vehicle: saline with Tween-80.

Regarding `O=C(c1ccccc1)C1Cc2ccccc2C1=O` (configuration not stated), the T/C was 100 % of control (dose: 100.0 mg/kg/injection, schedule: Q01DX001 (ip), vehicle: Klucel (hydroxypropylcellulose) (HPC)); 113 % of control under setting [1]; 100 % of control under setting [2]; 100 % of control (dose: 200.0 mg/kg/injection, schedule: Q01DX001 (ip), vehicle: Klucel (hydroxypropylcellulose) (HPC)); 109 % of control under setting [3]; 100 % of control under setting [4]. Further, the T/C reads like this: (dose: 400.0 mg/kg/injection, schedule: Q01DX001 (ip), vehicle: Klucel (hydroxypropylcellulose) (HPC)) 95 % of control; under setting [5], 118 % of control; under setting [6], 90 % of control.

For `CCSc1nc(C(OC)OC)c(Cc2ccccc2)c(=O)[nH]1`, the T/C was 90 % of control under setting [2], 90 % of control under setting [4] and 90 % of control under setting [6].

Take `CCCCCCCCCCCC[N+](CC)(CC)CC(=O)O`: the T/C is, setting by setting: (dose: 33.0 mg/kg/injection, schedule: Q01DX009 (ip), vehicle: saline) 113 % of control; (dose: 50.0 mg/kg/injection, schedule: Q01DX009 (ip), vehicle: saline) 113 % of control.

Consider `NC(=S)N/N=C\c1nccc2c(N)cccc12`, for which the T/C (dose: 6.25 mg/kg/injection, schedule: Q01DX009 (ip), vehicle: saline with Tween-80) was 186 % of control; the T/C (dose: 12.5 mg/kg/injection, schedule: Q01DX009 (ip), vehicle: saline with Tween-80) was 191 % of control; the T/C under setting [7] was 195 % of control; the T/C under setting [8] was 91 % of control; the T/C (dose: 75.0 mg/kg/injection, schedule: Q01DX009 (ip), vehicle: saline with Tween-80) was 89 % of control.

For the molecule `CC[C@@]1(O)C[C@H](OC2CC(N(C)C)C(OC3CC(O)C(OC4CC(O)C(O)C(C)O4)C(C)O3)C(C)O2)c2c(cc3c(c2O)C(=O)c2c(O)ccc(O)c2C3=O)[C@H]1C(=O)OC` (some centres not stated), the T/C is, setting by setting: (dose: 1.08 mg/kg/injection, schedule: Q04DX003 (ip), vehicle: water) 185 % of control; (dose: 1.8 mg/kg/injection, schedule: Q04DX003 (ip), vehicle: water) 194 % of control; (dose: 1.9 mg/kg/injection, schedule: Q01DX001 (ip), vehicle: other) 169 % of control; (dose: 3.8 mg/kg/injection, schedule: Q01DX001 (ip), vehicle: other) 196 % of control; (dose: 5.0 mg/kg/injection, schedule: Q04DX003 (ip), vehicle: water) 101 % of control; (dose: 7.5 mg/kg/injection, schedule: Q01DX001 (ip), vehicle: other) 198 % of control.

For `COc1cc(/C=N\Nc2ccccc2[N+](=O)[O-])cc(OC)c1OC`, the T/C runs as follows: under setting [9], 95 % of control; (dose: 200.0 mg/kg/injection, schedule: Q01DX009 (ip), vehicle: saline with Tween-80) 104 % of control; (dose: 400.0 mg/kg/injection, schedule: Q01DX009 (ip), vehicle: saline with Tween-80) 104 % of control.

In the case of `COC(=O)[C@@]12OC[C@]34[C@H]([C@@H](O)[C@@H]1O)[C@@]1(C)CC(=O)C(O)=C(C)[C@@H]1C[C@H]3OC(=O)[C@H](OC(=O)c1ccccc1)[C@@H]24`, the T/C is, setting by setting: (dose: 31.0 micrograms/kg/injection, schedule: Q01DX009 (ip), vehicle: saline + alcohol) 86 % of control and 90 % of control and 100 % of control; (dose: 61.0 micrograms/kg/injection, schedule: Q01DX009 (ip), vehicle: saline + alcohol) 100 % of control; (dose: 62.0 micrograms/kg/injection, schedule: Q01DX009 (ip), vehicle: saline + alcohol) 113 % of control; (dose: 125.0 micrograms/kg/injection, schedule: Q01DX009 (ip), vehicle: saline + alcohol) 95 % of control and 109 % of control; (dose: 250.0 micrograms/kg/injection, schedule: Q01DX009 (ip), vehicle: saline + alcohol) 100 % of control and 109 % of control; (dose: 500.0 micrograms/kg/injection, schedule: Q01DX009 (ip), vehicle: saline + alcohol) 100 % of control and 113 % of control. The T/C is, setting by setting: (dose: 1000.0 micrograms/kg/injection, schedule: Q01DX009 (ip), vehicle: saline + alcohol) 100 % of control and 118 % of control; (dose: 4000.0 micrograms/kg/injection, schedule: Q01DX009 (ip), vehicle: saline + alcohol) 109 % of control.

`Nc1n[nH]c(=S)n1-c1ccc(Cl)cc1`: the T/C reads like this: under setting [2], 100 % of control; under setting [4], 104 % of control; under setting [6], 100 % of control.

On to `Cn1ccc2nncn2c1=O`, for which the T/C under setting [10] is 115 % of control; the T/C (dose: 200.0 mg/kg/injection, schedule: Q01DX001 (ip), vehicle: saline with Tween-80) is 95 % of control; the T/C (dose: 400.0 mg/kg/injection, schedule: Q01DX001 (ip), vehicle: saline with Tween-80) is 98 % of control.

On to `Nc1ccc(NS(=O)(=O)Cc2ccccc2)cc1`, for which the T/C was 100 % of control (dose: 25.0 mg/kg/injection, schedule: Q01DX001 (ip), vehicle: saline with Tween-80); 100 % of control (dose: 50.0 mg/kg/injection, schedule: Q01DX001 (ip), vehicle: saline with Tween-80); 100 % of control under setting [10].

`COC(=O)c1c(O)cc(OC)cc1OC`: the T/C was 111 % of control under setting [1]; 100 % of control under setting [2]; 100 % of control under setting [3]; 95 % of control under setting [4]; 100 % of control under setting [5]; 95 % of control under setting [6].

As to `COc1cc2c(cc1OC)-c1cc3cc(OC)c(OC)cc3c(C)[n+]1CC2` (tested in a mixture with another compound), the T/C was 103 % of control (dose: 12.5 mg/kg/injection, schedule: Q01DX009 (ip), vehicle: Klucel (hydroxypropylcellulose) (HPC)); 104 % of control under setting [7]; 123 % of control (dose: 50.0 mg/kg/injection, schedule: Q01DX009 (ip), vehicle: Klucel (hydroxypropylcellulose) (HPC)); 113 % of control under setting [8]; 154 % of control under setting [9].

Turning to `c1cc(NC2CCCCC2)ccc1CN1CCOCC1`, the T/C is, setting by setting: (dose: 50.0 mg/kg/injection, schedule: Q01DX009 (ip), vehicle: other) 102 % of control and 109 % of control; (dose: 100.0 mg/kg/injection, schedule: Q01DX009 (ip), vehicle: other) 116 % of control.

For `Cc1ccc2nc3c4ccccc4c4ccccc4c3nc2c1`, the T/C is 109 % of control under setting [1], 90 % of control under setting [3] and 100 % of control under setting [5].

Regarding `O=C(O)CC1SC(=S)N(c2ccccc2)C1=O` (configuration not stated), the T/C runs as follows: under setting [8], 101 % of control; under setting [9], 105 % of control.

Take `NNc1ncnc2c(C3OC(CO)C(O)C3O)[nH]nc12` (configuration not stated): the T/C (dose: 20.0 mg/kg/injection, schedule: Q01DX009 (ip), vehicle: water) is 100 % of control; the T/C (dose: 30.0 mg/kg/injection, schedule: Q01DX009 (ip), vehicle: water) is 105 % of control; the T/C (dose: 45.0 mg/kg/injection, schedule: Q01DX009 (ip), vehicle: water) was 110 % of control; the T/C (dose: 67.0 mg/kg/injection, schedule: Q01DX009 (ip), vehicle: water) was 95 % of control; the T/C (dose: 100.0 mg/kg/injection, schedule: Q01DX009 (ip), vehicle: water) is 100 % of control.

For the molecule `N/C(=N\OS(=O)(=O)c1ccccc1)OC1CCCCC1`, the T/C by setting is: (dose: 100.0 mg/kg/injection, schedule: Q04DX003 (ip), vehicle: saline with Tween-80) 99 % of control; (dose: 200.0 mg/kg/injection, schedule: Q04DX003 (ip), vehicle: saline with Tween-80) 98 % of control; (dose: 400.0 mg/kg/injection, schedule: Q04DX003 (ip), vehicle: saline with Tween-80) 98 % of control.

With `C(=Nc1ccc2c(c1)Cc1ccccc1-2)c1ccc2ccccc2c1`, the T/C (dose: 12.5 mg/kg/injection, schedule: Q04DX002 (ip), vehicle: saline with Tween-80) was 103 % of control; the T/C (dose: 25.0 mg/kg/injection, schedule: Q04DX002 (ip), vehicle: saline with Tween-80) was 94 % of control; the T/C (dose: 50.0 mg/kg/injection, schedule: Q04DX002 (ip), vehicle: saline with Tween-80) is 97 % of control.

Regarding `CCCCCCCCCCCCCCCCOc1ccc(C(C)(C)C)cc1`, the T/C was 100 % of control (dose: 37.5 mg/kg/injection, schedule: Q01DX001 (ip), vehicle: saline sonified); 100 % of control (dose: 75.0 mg/kg/injection, schedule: Q01DX001 (ip), vehicle: saline sonified); 100 % of control (dose: 150.0 mg/kg/injection, schedule: Q01DX001 (ip), vehicle: saline sonified).
